# Measurements as given in patent US11065244B2, “Methods of use of tetrahydroberberine (THB)” (DIGNITY HEALTH, priority 2010, dated 2021).
# Key:
# [1] = molecular target: vascular KATP channels (Kir6.1SRU2B) (Homo sapiens, UniProt O60706+Q15842); settings: relevant low concentration; cited from earlier work
# [2] = system: cardiac KATP channels (Kir6.1SUR2A); settings: relevant low concentration; cited from earlier work
# [3] = molecular target: T1, pancreatic β-cell KATP channels (Rattus norvegicus, UniProt P70673+Q09429); assay: Inside-out patch single channel recording in rat pancreatic β-cells, ATP free solution; assay type: cell-based; settings: bath-applied
# T1 construct: Single Channel Currents of KATP Channels in Rat Pancreatic β-Cells; from tissue; host or cells: rat pancreatic β-cells
# Kir6.1/SUR2B = molecular target: T2, Kir6.1/SUR2B (Homo sapiens, UniProt O60706+Q15842); assay: Whole-cell voltage-clamp currents of KATP channel subtypes, vesicle type; assay type: cell-based; settings: 100 μM perfused for 30 sec; currents at −100 mV; n=4
# T2 construct: expressed in transfected cells
# Procedure: (§1) Using whole-cell recordings in voltage-clamp mode, Command pulse protocol was set by the series test pulses with 100 ms duration that were applied between −100 and +50 mV in 10 mV steps from a holding potential of 0 mV (Top traces in FIG. 11, plots A-C). Representative effects of Ipt (100 μM perfused for 30 sec) on whole-cell current traces recorded from a cell expressed Kir6.2/SUR1 (A), Kir6.2/SUR2A (B) or Kir6.1/SUR2B (C). FIG. 11, plot D summarizes data for currents measured at −100 mV from A-C. Values are means±S.E.M. (n=4). *P<0.05, **P<0.01 vs. control.
# [4] = molecular target: neuronal type and pancreatic type of KATP channels (Kir6.2SUR1) (Homo sapiens, UniProt Q09428+Q14654); settings: relatively high concentrations; cited from earlier work
# rat pancreatic islets = assay: Insulin release from rat pancreatic islets; assay type: cell-based; settings: 100 μM; 5.5 mM glucose external; from 22.5±1.2
# Procedure: With 5.5 mM glucose in the external solution, basal insulin secretion was measured. […] Bath application of 100 μM THB increased insulin secretion from 22.5±1.2 to 39.4±1.5 pg/islet/min (FIG. 5; P<0.01; 6 cells) and 100 μM Ipt increased insulin secretion from 22.5±1.2 to 34.5±1.8 pg/islet/min (FIG. 11; P<0.05; 7 cells).
# Kir6.2SUR1 KATP channels = molecular target: T3, Kir6.2SUR1 KATP channels (Homo sapiens, UniProt Q09428+Q14654); assay: Patch-clamp cell attached single-channel recording of transfected Kir6.2SUR1 channels in HEK-293 cells; assay type: cell-based; settings: 100 μM; control as 1; THB 6 patches, Ipt 8 patches
# T3 construct: expressed in transfected cells; host or cells: HEK-293
# Procedure: In β-cells, the dominant subtype of KATP is the Kir 6.2SUR1 subtype, as earlier described. Cells transiently transfected with the KATP Kir 6.2SUR1 channel subtype were evaluated for membrane potential and action potential firing using cell-attached recording in the presence or absence of 100 μm THB (FIG. 8A).
# To further determine the effects of THB and Ipt on pancreatic β-cell-type KATP channels, the inventor examined the effects of THB or Ipt on the transfected Kir6.2SUR1 KATP channels in HEK-293 cells.
# Kir6.2/SUR2A = molecular target: T4, Kir6.2/SUR2A (Homo sapiens, UniProt O60706+Q14654); assay: Whole-cell voltage-clamp currents of KATP channel subtypes, cardiac type; assay type: cell-based; settings: 100 μM perfused for 30 sec; currents at −100 mV; n=4
# T4 construct: expressed in transfected cells
# Procedure: as §1
# [5] = molecular target: T1, pancreatic β-cell KATP channels; assay: Whole-cell KATP currents induced by ramp pulses in rat pancreatic β-cells; assay type: cell-based; settings: 100 μM bath application; external glucose 5.5 mM; ramp −90 to −50 mV
# Procedure: To determine whether or not THB and Ipt can block pancreatic β-cell KATP channels, whole-cell currents induced by repetitive ramp pulses from −90 to −50 mV (at 0.2 Hz) were recorded in voltage-clamp mode (external glucose=5.5 mM).
# Kir6.2/SUR1 = molecular target: T5, Kir6.2/SUR1 (Homo sapiens, UniProt Q09428+Q14654); assay: Whole-cell voltage-clamp currents of KATP channel subtypes, pancreatic type; assay type: cell-based; settings: 100 μM perfused for 30 sec; currents at −100 mV; n=4
# T5 construct: expressed in transfected cells
# Procedure: as §1
# SNc DA neurons = assay: Perforated patch current-clamp recording of membrane potential and firing of dissociated SNc DA neurons, substance applied alone; assay type: cell-based, rat
# Procedure: (§2) The protocol for preparation of single neurons from the rat SNc was approved by the Institutional Animal Care and Use Committee of the Barrow Neurological Institute. Single DA neurons were acutely dissociated from the SNc of 2-3-week-old Wistar rats following the protocol as previously described. Briefly, rats were anesthetized with isoflurane, and brain tissue was rapidly removed and immersed in cold (2-4° C.) dissection solution which contained: 136.7 mM NaCl, 5 mM KCl, 0.1 mM Na2HPO4, 0.2 mM KH2PO4, 9.84 mM HEPES, 16.6 mM D-glucose, 21.9 mM sucrose, pH 7.3, 330 mOsm, oxygenated with 100% O2 [8]. Three 400-μm coronal slices containing the SNc were cut using a vibrotome (Vibroslice 725M, WPI, Sarasota, Fla.). After cutting, slices were continuously bubbled with 95% O2-5% CO2 at room temperature (22±1° C.) for at least one hour in artificial cerebrospinal fluid (ACSF), which contained: 124 mM NaCl, 5 mM KCl, 24 mM NaHCO3, 1.3 mM MgSO4, 1.2 mM KH2PO4, 2.4 mM CaCl2, and 10 mM glucose, pH 7.4. Thereafter, slices were treated with pronase (1 mg per 6 ml) at 31° C. for 30 minutes in ACSF. The SNc was identified in a coronal slice using a stereo microscope with reference to the rat brain atlas, and was micro-punched out from slices using a well-polished needle. One punched piece was then transferred to a 35-mm culture dish filled with well-oxygenated standard extracellular solution, which contained: 150 mM NaCl, 5 mM KCl, 1 mM MgCl2, 2 mM CaCl2, 10 mM glucose 10, and 10 mM HEPES, pH 7.4 (with Tris-base). The punched piece was then dissociated mechanically using a fire-polished micro-Pasteur pipette under an inverted microscope (Olympus IX-70, Lake Success, N.Y.). The separated cells adhered to the bottom of the culture dish within 30 minutes. In the present study, we used only DA neurons that maintained their original morphological features of polygonal, large or medium somata with 2-4 thick primary dendritic processes were used.
# Perforated patch whole-cell recording techniques were employed as previously described. Pipettes (3-5 MΩ) used for perforated patch recording were filled with intracellular recording solution containing 140 mM potassium gluconate, 10 mM KCl, 5 mM MgCl2, and 10 mM HEPES, pH 7.2 (with Tris-OH). The amphotericin B was freshly prepared to 200-240 μg/ml from a 40 mg/ml in DMSO stock. The liquid junction potential was 14 mV calculated using Clamplex 9.2 (Axon Instruments, Foster City, Calif.) and corrections were made for junction potentials post-hoc. After tight seal (>2 GΩ) formation, it usually took about 5-20 min to convert to perforated patch mode, and an access resistance of 20-60 MΩ was accepted to start the experiments. Series resistance was not compensated in this study. The data were filtered at 2 kHz, acquired at 10 kHz and digitized on-line (Digidata 1322 series A/D board, Axon Instruments, Foster City, Calif.). […] Drug application was performed using a computer-controlled “U-tube” system as previously described. All experiments were performed at room temperature (22±1° C.). To enable identification of single, dissociated SNc neurons after a patch-clamp recording session, the recording pipette was filled with a fluorescent dye (lucifer yellow CH, Sigma Chemical Co., St. Louis, Mo., 1.0 mg/ml in the recording electrode) in some experiments. After conversion from the perforated patch to the conventional whole-cell recording mode, the dye was ejected into the cytoplasm by a pulse (200 ms, 0.5 Hz) of hyperpolarizing current (1.0 nA) for 3 min. Labeled cells were visualized using epifluorescence microscopy. […]
# [6] = system: D2 receptor and dopamine-opened K+ channels; assay: Dopamine-induced membrane potential hyperpolarization in dissociated SNc DA neurons; assay type: cell-based, rat
# Procedure: All experiments were performed at room temperature (22±1° C.).
# [7] = molecular target: T6, KATP channels in SNc DA neurons (Rattus norvegicus, UniProt P70673+Q09429); assay: Perforated patch current-clamp recording of rotenone-opened KATP channels in dissociated SNc DA neurons; assay type: cell-based; settings: for altered membrane potential (depolarization) on rotenone-opened KATP channels, analog comparison: 100 μM, 6 neurons, FIG. 4B; for altered membrane potential in the presence of rotenone: FIG. 5C
# T6 construct: functional KATP channels natively expressed on midbrain dopamine neurons; from tissue; host or cells: acutely dissociated dopaminergic neurons of rat substantia nigra pars compacta
# Procedure: as §2
# Perforated patch whole-cell recording techniques were employed as previously described. Pipettes (3-5 MΩ) used for perforated patch recording were filled with intracellular recording solution containing 140 mM potassium gluconate, 10 mM KCl, 5 mM MgCl2, and 10 mM HEPES, pH 7.2 (with Tris-OH). The amphotericin B was freshly prepared to 200-240 μg/ml from a 40 mg/ml in DMSO stock. The liquid junction potential was 14 mV calculated using Clamplex 9.2 (Axon Instruments, Foster City, Calif.) and corrections were made for junction potentials post-hoc. After tight seal (>2 GΩ) formation, it usually took about 5-20 min to convert to perforated patch mode, and an access resistance of 20-60 MΩ was accepted to start the experiments. Series resistance was not compensated in this study. The data were filtered at 2 kHz, acquired at 10 kHz and digitized on-line (Digidata 1322 series A/D board, Axon Instruments, Foster City, Calif.). […] Drug application was performed using a computer-controlled “U-tube” system as previously described. All experiments were performed at room temperature (22±1° C.). To enable identification of single, dissociated SNc neurons after a patch-clamp recording session, the recording pipette was filled with a fluorescent dye (lucifer yellow CH, Sigma Chemical Co., St. Louis, Mo., 1.0 mg/ml in the recording electrode) in some experiments. After conversion from the perforated patch to the conventional whole-cell recording mode, the dye was ejected into the cytoplasm by a pulse (200 ms, 0.5 Hz) of hyperpolarizing current (1.0 nA) for 3 min. Labeled cells were visualized using epifluorescence microscopy.
# Under physiological conditions, the KATP channels are mostly closed. However, in the acutely-dissociated single neurons from rat SNc, there is background opening of KATP channels. […]
# neuronal KATP channels = molecular target: T7, neuronal KATP channels (Rattus norvegicus, UniProt P70673+Q09429); assay: Rotenone-induced outward current in voltage-clamp mode in the presence of the D2 receptor antagonist sulpiride; assay type: cell-based; settings: VH −30 mV, 6 neurons
# T7 construct: functional KATP channels natively expressed on midbrain dopamine neurons; from tissue; host or cells: acutely dissociated dopaminergic neurons of rat substantia nigra pars compacta
# Procedure: as §2, with “In the present study, we used only DA neurons that maintained their original morphological features of polygonal, large or medium somata with 2-4 thick primary dendritic processes were used.” left out
# Perforated patch whole-cell recording techniques were employed as previously described. […] The liquid junction potential was 14 mV calculated using Clamplex 9.2 (Axon Instruments, Foster City, Calif.) and corrections were made for junction potentials post-hoc. […]
# T6 sequence (P70673 whole entry): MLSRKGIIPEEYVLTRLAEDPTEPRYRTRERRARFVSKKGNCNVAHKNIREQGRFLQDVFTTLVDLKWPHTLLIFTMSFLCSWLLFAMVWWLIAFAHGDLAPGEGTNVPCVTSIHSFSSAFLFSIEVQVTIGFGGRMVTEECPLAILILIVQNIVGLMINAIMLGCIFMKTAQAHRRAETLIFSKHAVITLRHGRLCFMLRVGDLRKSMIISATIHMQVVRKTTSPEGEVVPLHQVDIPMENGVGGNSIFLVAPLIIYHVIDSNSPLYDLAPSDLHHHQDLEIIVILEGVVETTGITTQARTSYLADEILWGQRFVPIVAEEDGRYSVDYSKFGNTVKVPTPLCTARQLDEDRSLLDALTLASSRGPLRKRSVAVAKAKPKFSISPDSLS
# T6 sequence (Q09429 whole entry): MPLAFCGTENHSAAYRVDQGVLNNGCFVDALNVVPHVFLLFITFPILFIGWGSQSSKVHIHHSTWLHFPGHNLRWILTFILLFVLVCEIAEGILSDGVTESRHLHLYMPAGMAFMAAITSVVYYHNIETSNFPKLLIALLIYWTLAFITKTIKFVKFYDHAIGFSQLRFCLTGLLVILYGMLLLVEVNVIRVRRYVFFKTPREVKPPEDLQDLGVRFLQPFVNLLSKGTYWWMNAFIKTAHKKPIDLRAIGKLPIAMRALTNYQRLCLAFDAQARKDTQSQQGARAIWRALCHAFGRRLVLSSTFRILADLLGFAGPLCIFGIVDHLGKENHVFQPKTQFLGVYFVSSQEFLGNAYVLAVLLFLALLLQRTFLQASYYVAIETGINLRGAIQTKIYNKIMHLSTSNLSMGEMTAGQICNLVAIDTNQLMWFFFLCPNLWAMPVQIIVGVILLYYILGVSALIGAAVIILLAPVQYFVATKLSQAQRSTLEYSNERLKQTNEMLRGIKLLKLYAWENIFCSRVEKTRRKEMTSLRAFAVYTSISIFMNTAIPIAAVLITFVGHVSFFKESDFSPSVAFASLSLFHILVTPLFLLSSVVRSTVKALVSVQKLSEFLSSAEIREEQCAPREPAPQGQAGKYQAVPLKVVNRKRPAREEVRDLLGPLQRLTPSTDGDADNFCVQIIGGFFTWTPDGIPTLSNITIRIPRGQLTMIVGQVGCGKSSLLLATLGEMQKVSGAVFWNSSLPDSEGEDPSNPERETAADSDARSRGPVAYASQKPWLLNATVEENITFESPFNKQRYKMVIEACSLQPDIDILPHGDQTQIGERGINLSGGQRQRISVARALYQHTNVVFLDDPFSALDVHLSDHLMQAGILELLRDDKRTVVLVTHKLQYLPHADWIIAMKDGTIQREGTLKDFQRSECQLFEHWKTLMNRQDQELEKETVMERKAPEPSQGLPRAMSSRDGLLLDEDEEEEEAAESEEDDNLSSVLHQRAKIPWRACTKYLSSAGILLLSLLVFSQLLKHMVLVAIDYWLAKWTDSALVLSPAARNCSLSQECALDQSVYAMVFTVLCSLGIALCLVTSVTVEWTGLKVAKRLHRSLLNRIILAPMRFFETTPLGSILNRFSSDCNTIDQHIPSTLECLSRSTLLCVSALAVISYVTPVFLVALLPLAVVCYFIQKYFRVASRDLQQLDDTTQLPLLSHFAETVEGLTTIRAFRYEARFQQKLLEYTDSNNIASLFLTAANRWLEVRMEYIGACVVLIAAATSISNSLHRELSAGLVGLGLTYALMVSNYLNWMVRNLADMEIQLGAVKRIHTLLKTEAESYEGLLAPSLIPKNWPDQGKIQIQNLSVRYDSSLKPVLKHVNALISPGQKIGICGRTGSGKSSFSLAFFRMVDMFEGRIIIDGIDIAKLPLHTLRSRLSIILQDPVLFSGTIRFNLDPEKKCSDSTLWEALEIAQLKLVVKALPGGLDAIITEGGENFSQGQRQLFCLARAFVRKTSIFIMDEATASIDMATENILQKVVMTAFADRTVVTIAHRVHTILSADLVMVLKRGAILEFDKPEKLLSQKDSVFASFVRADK
# T7 sequence (P70673 whole entry): as the sequence (P70673 whole entry) above
# T7 sequence (Q09429 whole entry): as the sequence (Q09429 whole entry) above
# T1 sequence (P70673 whole entry): as the sequence (P70673 whole entry) above
# T1 sequence (Q09429 whole entry): as the sequence (Q09429 whole entry) above
# T4 sequence (Q14654 whole entry, the tested form may be a part): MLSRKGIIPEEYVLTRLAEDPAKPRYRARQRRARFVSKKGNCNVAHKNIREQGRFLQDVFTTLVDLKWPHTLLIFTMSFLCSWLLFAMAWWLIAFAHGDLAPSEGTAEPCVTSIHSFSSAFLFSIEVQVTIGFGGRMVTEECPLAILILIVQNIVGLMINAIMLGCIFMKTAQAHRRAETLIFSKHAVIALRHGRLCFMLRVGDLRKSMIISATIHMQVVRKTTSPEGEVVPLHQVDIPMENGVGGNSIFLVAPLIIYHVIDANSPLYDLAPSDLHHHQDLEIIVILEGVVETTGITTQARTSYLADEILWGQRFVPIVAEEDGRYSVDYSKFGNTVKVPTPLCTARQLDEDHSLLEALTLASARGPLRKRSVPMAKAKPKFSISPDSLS
# T4 sequence (O60706 whole entry, the tested form may be a part): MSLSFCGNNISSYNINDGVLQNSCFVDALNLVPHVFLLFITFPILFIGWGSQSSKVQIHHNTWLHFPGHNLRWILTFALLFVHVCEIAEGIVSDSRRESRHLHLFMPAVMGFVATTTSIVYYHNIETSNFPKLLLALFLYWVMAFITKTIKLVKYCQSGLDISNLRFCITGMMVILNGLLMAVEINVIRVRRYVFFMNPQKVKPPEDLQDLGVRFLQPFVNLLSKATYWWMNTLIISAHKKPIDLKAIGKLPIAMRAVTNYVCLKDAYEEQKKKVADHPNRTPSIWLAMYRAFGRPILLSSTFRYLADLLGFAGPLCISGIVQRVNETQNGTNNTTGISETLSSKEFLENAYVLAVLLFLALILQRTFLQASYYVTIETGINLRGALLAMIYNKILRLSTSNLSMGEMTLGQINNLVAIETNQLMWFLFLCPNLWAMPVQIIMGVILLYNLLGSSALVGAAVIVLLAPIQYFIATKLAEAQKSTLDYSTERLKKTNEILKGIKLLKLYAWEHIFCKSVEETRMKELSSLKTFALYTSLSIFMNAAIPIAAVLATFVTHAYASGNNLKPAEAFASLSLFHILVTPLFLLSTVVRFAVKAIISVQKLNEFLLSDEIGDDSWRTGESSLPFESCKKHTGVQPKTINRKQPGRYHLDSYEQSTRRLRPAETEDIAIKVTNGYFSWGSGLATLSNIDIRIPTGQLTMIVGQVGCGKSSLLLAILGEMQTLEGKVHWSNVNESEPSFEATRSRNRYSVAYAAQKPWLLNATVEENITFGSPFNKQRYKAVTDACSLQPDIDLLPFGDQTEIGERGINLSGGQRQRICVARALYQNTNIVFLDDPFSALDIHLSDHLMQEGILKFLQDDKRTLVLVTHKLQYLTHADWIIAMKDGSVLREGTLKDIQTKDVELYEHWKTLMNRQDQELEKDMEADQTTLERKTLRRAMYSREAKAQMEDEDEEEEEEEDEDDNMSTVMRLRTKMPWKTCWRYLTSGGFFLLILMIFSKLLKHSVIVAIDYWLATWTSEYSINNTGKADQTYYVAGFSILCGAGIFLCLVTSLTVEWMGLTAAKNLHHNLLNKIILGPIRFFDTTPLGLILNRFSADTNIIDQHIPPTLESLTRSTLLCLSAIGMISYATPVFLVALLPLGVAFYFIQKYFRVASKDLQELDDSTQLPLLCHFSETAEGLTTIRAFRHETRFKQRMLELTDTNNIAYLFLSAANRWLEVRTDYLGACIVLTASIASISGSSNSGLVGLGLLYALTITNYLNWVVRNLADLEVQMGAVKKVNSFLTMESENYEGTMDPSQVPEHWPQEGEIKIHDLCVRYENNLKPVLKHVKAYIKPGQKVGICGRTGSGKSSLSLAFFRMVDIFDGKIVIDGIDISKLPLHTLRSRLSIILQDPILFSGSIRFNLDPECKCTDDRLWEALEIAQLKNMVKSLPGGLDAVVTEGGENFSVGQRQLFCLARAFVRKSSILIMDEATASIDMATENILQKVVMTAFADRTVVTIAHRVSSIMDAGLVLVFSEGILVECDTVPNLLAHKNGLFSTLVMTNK
compound,measurement,setting,value
"CC(C)NC(C)(C)C(C)C [Ipt, Iptakalim]",concentration at which Ipt mainly opens vascular KATP channels,[1],< 10 µM
same,concentration at which Ipt weakly opens cardiac KATP channels,[2],< 10 µM
same,effect on single channel activities opened by ATP free solution,[3],inhibited these single channel activities
same,effect on whole-cell current of Kir6.1/SUR2B,Kir6.1/SUR2B,opens cardiovascular types of KATP channels
same,concentration at which Ipt blocks neuronal type and pancreatic type of KATP channels,[4],> 30 µM
same,insulin secretion after bath application,rat pancreatic islets,34.5±1.8 pg/islet/min
same,normalized NPo value,Kir6.2SUR1 KATP channels,0.50±0.02
same,effect on whole-cell current of Kir6.2/SUR2A,Kir6.2/SUR2A,opens cardiovascular types of KATP channels
same,effect on β-cell KATP channel-mediated whole-cell currents,[5],reduced these β-cell KATP channel-mediated currents
same,effect on whole-cell current of Kir6.2/SUR1,Kir6.2/SUR1,blocks β-cell-type KATP channels
CC1=Nc2ccc(Cl)cc2S(=O)(=O)N1 [dizoxide],effect of KATP channel opener on membrane potential,SNc DA neurons; 300 μM (FIG. 3B legend),hyperpolarized membrane potential
NCCc1ccc(O)c(O)c1 [dopamine],membrane potential hyperpolarization by dopamine,"[6]; 10 μM dopamine bath-application, 10 neurons, p<0.01",10.5±1.1 mV
"COc1cc2c(cc1O)[C@@H]1Cc3ccc(O)c(OC)c3CN1CC2 [l-SPD, l-stepholidine]","altered membrane potential (depolarization) on rotenone-opened KATP channels, analog comparison",[7],8.4±1.4 mV
"COc1cc2c(cc1OC)[C@@H]1Cc3ccc(OC)c(OC)c3CN1CC2 [l-THP, l-tetrahydropalmatine]","altered membrane potential (depolarization) on rotenone-opened KATP channels, analog comparison",[7],3.4±0.5 mV
C=C(C)[C@H]1Cc2c(ccc3c2O[C@@H]2COc4cc(OC)c(OC)cc4[C@@H]2C3=O)O1 [rotenone],membrane potential after perfusion of rotenone,"SNc DA neurons; 1 μM rotenone for 1-3 min, averaged resting membrane potential −46.1±0.9 mV, 30 neurons, p<0.001",−61.1±0.9 mV
same,rotenone-induced outward current amplitude,neuronal KATP channels; in the presence of sulpiride,125.8±37.1 pA
CCN1CCCC1CNC(=O)c1cc(S(N)(=O)=O)ccc1OC (centres unmarked) [sulpiride],effect of D2 receptor antagonist alone on resting membrane potential,"SNc DA neurons; exposure alone, neuronal firing rate was increased",did not clearly alter resting membrane potential
CCCCNC(=O)NS(=O)(=O)c1ccc(C)cc1 [tolbutamide],altered membrane potential on co-application with dopamine,[6]; difference THB vs tolbutamide p>0.05,8.5±2.2 mV
same,membrane potential after exposure to substance alone,"SNc DA neurons; 100 μM, before: THB −46.5±0.9 (n=7), tolbutamide −44.4±1.6 (n=5)",−44.1±1.8 mV
same,rotenone-induced outward current amplitude after addition of substance,"neuronal KATP channels; 100 mM substance as printed, sulpiride present, from 125.8±37.1 pA, p<0.01",45.8±23.7 pA
same,membrane potential after substance during persistent perfusion of rotenone,"[7]; 1 μM rotenone, before: THB −61.7±1.3 (n=11), tolbutamide −61.6±1.2 (n=21), p<0.01",−52.5±1.1 mV
same,altered membrane potential in the presence of rotenone,[7]; 1 μM substance,0.2±0.1 mV
same,altered membrane potential in the presence of rotenone,[7]; 10 μM substance,4.4±0.3 mV
same,altered membrane potential in the presence of rotenone,[7]; 100 μM substance,9.1±0.5 mV
same,Hill coefficient of concentration-effect relationship curve,[7]; membrane depolarization in the presence of rotenone,2.1
same,IC50,"[7]; membrane depolarization in the presence of rotenone, read-out: IC50 of concentration-effect relationship curve (block of KATP channels)",10.4 µM
